# Experimental data from US9204653B2, “5-fluoro pyrimidine derivatives” (DOW AGROSCIENCES LLC, priority 2008, dated 2015).
# Like-named read-outs stand apart in the source and are kept apart here.
# System: Mycosphaerella graminicola; Anamorph: Septoria tritici; Bayer Code SEPTTR
# Assay: Leaf blotch of wheat, foliar fungicide treatment, one day protectant (1DP) or three day curative (3DC)
# Type: in vivo, Septoria tritici on wheat plants (variety Yuma)
# Settings: Zymoseptoria tritici, percent control rating; for pest or weed control at 100 ppm: read-out: SEPTTR 3DC 100 ppm
# [1] = 24 h, one day protectant (1DP), 25 ppm (first 1DP column), read-out: SETTTR 1DP 25 ppm
# [2] = 24 h, one day protectant (1DP), 25 ppm as printed (second 1DP column), read-out: SETTTR 1DP 25 ppm
# [3] = 72 h, three day curative (3DC), 25 ppm, read-out: SEPTTR 3DC 25 ppm
SMILES,pest or weed control at 25 ppm [1] [%],pest or weed control at 25 ppm [2] [%],pest or weed control at 25 ppm [3] [%],"pest or weed control at 100 ppm (72 h, three day curative (3DC)) [%]"
C=CCOc1ncc(F)c(N/N=C/c2ccco2)n1 [Compound 1064],0 to 25,0 to 25,0 to 25,0 to 25
COc1ncc(F)c(N(C)O)n1 [Compound 1066],0 to 25,0 to 25,0 to 25,0 to 25
COc1ncc(F)c(N(O)C(C)C)n1 [Compound 1067],0 to 25,0 to 25,0 to 25,0 to 25
CN(Cc1ccc(Cl)cc1)c1nc(O)ncc1F [Compound 1068],0 to 25,0 to 25,0 to 25,0 to 25
Cc1ccc(CN(C)c2nc(O)ncc2F)cc1 [Compound 1069],0 to 25,0 to 25,51 to 75,51 to 75
COc1ccccc1CN(C)c1nc(O)ncc1F [Compound 1070],26 to 50,0 to 25,0 to 25,0 to 25
CN(Cc1ccc(C(F)(F)F)cc1)c1nc(O)ncc1F [Compound 1071],0 to 25,26 to 50,26 to 50,26 to 50
C=CCOc1ncc(F)c(NOCC)n1 [Compound 1072],0 to 25,0 to 25,0 to 25,0 to 25
COc1ncc(F)c(NOCc2ccc([N+](=O)[O-])cc2)n1 [Compound 1073],26 to 50,0 to 25,0 to 25,0 to 25
C=CCOc1ncc(F)c(NNc2cc(C)ccc2C)n1 [Compound 1074],0 to 25,0 to 25,0 to 25,26 to 50
C=CCOc1ncc(F)c(NO[Si](C)(C)C(C)(C)C)n1 [Compound 1075],0 to 25,0 to 25,0 to 25,0 to 25
COc1ccc(CONc2nc(OC)ncc2F)cc1 [Compound 1076],0 to 25,0 to 25,0 to 25,26 to 50
C=CCOc1ncc(F)c(NNc2ccccc2F)n1 [Compound 1077],0 to 25,0 to 25,0 to 25,26 to 50
C=CCOc1ncc(F)c(NNc2ccc(Br)cc2)n1 [Compound 1078],0 to 25,0 to 25,26 to 50,0 to 25
COc1ncc(F)c(NO[Si](C)(C)C(C)(C)C)n1 [Compound 1079],0 to 25,0 to 25,0 to 25,0 to 25
COc1ncc(F)c(N(O)Cc2ccccc2)n1 [Compound 1080],0 to 25,0 to 25,26 to 50,26 to 50
COc1ncc(F)c(NOCCOc2ccccc2)n1 [Compound 1081],0 to 25,0 to 25,0 to 25,0 to 25
Oc1ncc(F)c(NCOCc2ccccc2)n1 [Compound 1082],0 to 25,0 to 25,0 to 25,0 to 25
CC(=O)OCOc1ncc(F)c(/N=C/N(C)C)n1 [Compound 1083],76 to 100,76 to 100,76 to 100,76 to 100
CN(C)/C=N/c1nc(OCOC(=O)C2CCCC2)ncc1F [Compound 1084],76 to 100,76 to 100,76 to 100,76 to 100
CN(C)/C=N/c1nc(OCOC(=O)c2ccccc2)ncc1F [Compound 1085],76 to 100,76 to 100,76 to 100,76 to 100
C=CCOc1ncc(F)c(NNc2cccc(F)n2)n1 [Compound 1086],0 to 25,0 to 25,0 to 25,0 to 25
C=CCOc1ncc(F)c(NOCc2ccccc2)n1 [Compound 1087],0 to 25,0 to 25,0 to 25,0 to 25

SMILES,pest or weed control at 25 ppm [1] [%],pest or weed control at 25 ppm [2] [%],pest or weed control at 25 ppm [3] [%],"pest or weed control at 100 ppm (72 h, three day curative (3DC)) [%]"
C=CCOc1ncc(F)c(N(O)Cc2ccccc2)n1 [Compound 1088],0 to 25,26 to 50,0 to 25,0 to 25
Cc1ccc(COc2ncc(F)c(/N=N/c3cc(C)ccc3C)n2)cc1 [Compound 1089],0 to 25,0 to 25,26 to 50,26 to 50
Fc1ccc(COc2ncc(F)c(/N=N/c3ccc(Cl)c(Cl)c3)n2)cc1 [Compound 1090],0 to 25,0 to 25,26 to 50,26 to 50
CC(C)(C)NNc1nc(O)ncc1F [Compound 1092],0 to 25,26 to 50,0 to 25,26 to 50
NN(Cc1ccccc1)c1nc(O)ncc1F [Compound 1093],0 to 25,0 to 25,0 to 25,0 to 25
Oc1ncc(F)c(N(O)Cc2ccccc2)n1 [Compound 1094],0 to 25,0 to 25,26 to 50,26 to 50
Oc1ncc(F)c(NOCc2ccccc2)n1 [Compound 1095],0 to 25,0 to 25,0 to 25,0 to 25
CON(C)c1nc(O)ncc1F [Compound 1096],0 to 25,0 to 25,0 to 25,76 to 100
COc1ncc(F)c(/N=N/c2c(Cl)cccc2Cl)n1 [Compound 1097],0 to 25,0 to 25,0 to 25,26 to 50
Oc1ncc(F)c(NNc2ccccc2Cl)n1 [Compound 1098],0 to 25,0 to 25,0 to 25,0 to 25
C=CCOc1ncc(F)c(/N=N/c2ccccc2F)n1 [Compound 1099],0 to 25,0 to 25,0 to 25,0 to 25
C=CCOc1ncc(F)c(/N=N/c2ccc(Br)cc2)n1 [Compound 1100],0 to 25,0 to 25,26 to 50,26 to 50
CS(=O)(=O)Nc1nc(O)ncc1F [Compound 1101],0 to 25,0 to 25,0 to 25,0 to 25
COc1ccccc1S(=O)(=O)Nc1nc(O)ncc1F [Compound 1102],0 to 25,0 to 25,26 to 50,26 to 50
O=S(=O)(Nc1nc(O)ncc1F)c1ccccc1Cl [Compound 1103],0 to 25,0 to 25,0 to 25,0 to 25
O=S(=O)(Nc1nc(O)ncc1F)C1CC1 [Compound 1104],0 to 25,0 to 25,0 to 25,0 to 25
CCS(=O)(=O)Nc1nc(O)ncc1F [Compound 1105],0 to 25,0 to 25,0 to 25,0 to 25
COc1nn(C)c(C(F)(F)F)c1S(=O)(=O)Nc1nc(O)ncc1F [Compound 1106],0 to 25,0 to 25,0 to 25,0 to 25
O=S(=O)(Nc1nc(OCc2cccs2)ncc1F)c1ccccc1 [Compound 1107],0 to 25,0 to 25,0 to 25,0 to 25
C/C(=N\Nc1nc(O)ncc1F)c1ccc(Br)cc1 [Compound 1108],0 to 25,0 to 25,0 to 25,0 to 25
C=CCOc1ncc(F)c(/N=N/c2cc(C)ccc2C)n1 [Compound 1109],0 to 25,0 to 25,0 to 25,0 to 25
COc1ncc(F)c(/N=N/c2ccccc2Cl)n1 [Compound 1110],0 to 25,0 to 25,0 to 25,0 to 25
Oc1ncc(F)c(N/N=C/c2ccco2)n1 [Compound 1112],0 to 25,0 to 25,0 to 25,26 to 50
